# According to ChEMBL document CHEMBL5244273, “Tuberculosis: An Overview of the Immunogenic Response, Disease Progression, and Medicinal Chemistry Efforts in the Last Decade toward the Development of Potential Drugs for Extensively Drug-Resistant Tuberculosis Strains” (J Med Chem, 2021):
# Assays:
# Assay type in all cases: functional
# [1] = test system: Mycobacterium tuberculosis; assay: Antimycobacterial activity against multidrug-resistant Mycobacterium tuberculosis H37Rv assessed as inhibition of bacterial growth by alamar blue assay
# [2] = test system: Mycobacterium tuberculosis; assay: Antimycobacterial activity against extensively-resistant Mycobacterium tuberculosis H37Rv assessed as inhibition of bacterial growth by alamar blue assay
# [3] = test system: Mycobacterium tuberculosis; assay: Antimycobacterial activity against isoniazid resistant Mycobacterium tuberculosis clinical isolate incubated for 7 days by resazurin microtitre assay; details: 168 h, time 7 day
# [4] = test system: Mycobacterium tuberculosis; assay: Antimycobacterial activity against isoniazid, rifampicin, ethambutol, pyrazinamide, streptomycin, capreomycin, amikacin, kanamycin, ofloxacin, and ethionamide resistant Mycobacterium tuberculosis clinical isolate incubated for 7 days by resazurin microtitre assay; details: 168 h, time 7 day
# [5] = test system: Mycobacterium tuberculosis; assay: Antimycobacterial activity against isoniazid, rifampicin, ethambutol, pyrazinamide, capreomycin, and ethionamide resistant Mycobacterium tuberculosis clinical isolate incubated for 7 days by resazurin microtitre assay; details: 168 h, time 7 day
# [6] = test system: Mycobacterium tuberculosis; assay: Antimycobacterial activity against multidrug resistant Mycobacterium tuberculosis H37Rv
# [7] = test system: Mycobacterium tuberculosis; assay: Antimycobacterial activity against extensively drug resistant Mycobacterium tuberculosis H37Rv
# [8] = test system: Mycobacterium tuberculosis; assay: Antitubercular activity against extensively drug resistant Mycobacterium tuberculosis clinical isolate 9 by resazurin microtitre assay
# [9] = test system: Mycobacterium tuberculosis; assay: Antitubercular activity against multidrug resistant Mycobacterium tuberculosis clinical isolate 10 by resazurin microtitre assay
# [10] = test system: Mycobacterium tuberculosis; assay: Antitubercular activity against extensively drug resistant Mycobacterium tuberculosis clinical isolate 8 by resazurin microtitre assay
# [11] = test system: Mycobacterium tuberculosis; assay: Antitubercular activity against multidrug resistant Mycobacterium tuberculosis clinical isolate 4 by resazurin microtitre assay
# [12] = test system: Mycobacterium tuberculosis; assay: Antitubercular activity against extensively drug resistant Mycobacterium tuberculosis clinical isolate 1 by resazurin microtitre assay
# [13] = test system: Mycobacterium tuberculosis; assay: Antitubercular activity against multidrug resistant Mycobacterium tuberculosis clinical isolate 3 by resazurin microtitre assay
# [14] = test system: Mycobacterium tuberculosis; assay: Antitubercular activity against multidrug resistant Mycobacterium tuberculosis clinical isolate 9 by resazurin microtitre assay
# [15] = test system: Mycobacterium tuberculosis; assay: Antitubercular activity against multidrug resistant Mycobacterium tuberculosis clinical isolate 6 by resazurin microtitre assay
# [16] = test system: Mycobacterium tuberculosis; assay: Antitubercular activity against multidrug resistant Mycobacterium tuberculosis clinical isolate 7 by resazurin microtitre assay
# [17] = test system: Mycobacterium tuberculosis; assay: Antitubercular activity against extensively drug resistant Mycobacterium tuberculosis KMRC 0 0203-0 0197 by resazurin microtitre assay
# [18] = test system: Mycobacterium tuberculosis; assay: Antitubercular activity against extensively drug resistant Mycobacterium tuberculosis clinical isolate 3 by resazurin microtitre assay
# [19] = test system: Mycobacterium tuberculosis; assay: Antitubercular activity against extensively drug resistant Mycobacterium tuberculosis clinical isolate 4 by resazurin microtitre assay
# [20] = test system: Mycobacterium tuberculosis; assay: Antitubercular activity against multidrug resistant Mycobacterium tuberculosis clinical isolate 11 by resazurin microtitre assay
# [21] = test system: Mycobacterium tuberculosis; assay: Antitubercular activity against extensively drug resistant Mycobacterium tuberculosis clinical isolate 2 by resazurin microtitre assay
# [22] = test system: Mycobacterium tuberculosis; assay: Antitubercular activity against multidrug resistant Mycobacterium tuberculosis clinical isolate 2 by resazurin microtitre assay
# [23] = test system: Mycobacterium tuberculosis; assay: Antitubercular activity against multidrug resistant Mycobacterium tuberculosis clinical isolate 8 by resazurin microtitre assay
# [24] = test system: Mycobacterium tuberculosis; assay: Antitubercular activity against extensively drug resistant Mycobacterium tuberculosis clinical isolate 5 by resazurin microtitre assay
# [25] = test system: Mycobacterium tuberculosis; assay: Antitubercular activity against extensively drug resistant Mycobacterium tuberculosis clinical isolate 10 by resazurin microtitre assay
# [26] = test system: Mycobacterium tuberculosis; assay: Antitubercular activity against multidrug resistant Mycobacterium tuberculosis clinical isolate 5 by resazurin microtitre assay
# [27] = test system: Mycobacterium tuberculosis; assay: Antitubercular activity against extensively drug resistant Mycobacterium tuberculosis clinical isolate 7 by resazurin microtitre assay
# [28] = test system: Mycobacterium tuberculosis; assay: Antitubercular activity against multidrug resistant Mycobacterium tuberculosis clinical isolate 1 by resazurin microtitre assay
# [29] = test system: Mycobacterium tuberculosis; assay: Antitubercular activity against extensively drug resistant Mycobacterium tuberculosis clinical isolate 6 by resazurin microtitre assay
# [30] = test system: Mycobacterium tuberculosis; assay: Antitubercular activity against extensively drug resistant Mycobacterium tuberculosis clinical isolate 11 by resazurin microtitre assay
# [31] = test system: Mycobacterium tuberculosis; assay: Antimycobacterial activity against isoniazid, rifampicin, amikacin and moxifloxacin resistant Mycobacterium tuberculosis by broth dilution method
# [32] = test system: Mycobacterium tuberculosis; assay: Antimycobacterial activity against rifampicin resistant Mycobacterium tuberculosis by broth dilution method
# [33] = test system: Mycobacterium tuberculosis; assay: Antimycobacterial activity against isoniazid and rifampicin resistant Mycobacterium tuberculosis by broth dilution method
structure (smiles),measurement,setting,value
Cc1cc(O)n2nc(Nc3ccc(Cl)c(Cl)c3)c(C(N)=O)c2n1,MIC,[1],12.5 µg/mL
same,MIC,[2],50 µg/mL
CC(=O)N1/C(=C/c2ccc(-c3ccc(C)cc3)cc2)C(=O)c2ccccc21,MIC,[3],17.7 µM
same,MIC,[4],17.7 µM
same,MIC,[5],17.7 µM
CC(=O)N1/C(=C/c2ccc(-c3ccccc3)cc2)C(=O)c2ccccc21,MIC,[3],12.3 µM
same,MIC,[4],12.3 µM
same,MIC,[5],12.3 µM
COc1ccccc1NC(=O)c1c(Nc2cccc(C)c2)nn2c(O)cc(C)nc12,MIC,[1],6.25 µg/mL
same,MIC,[2],12.5 µg/mL
COc1cccc(C(=O)Nc2nc3cc(C4=NN(C(C)=O)C(c5cccs5)C4)ccc3o2)c1 (stereo not given),MIC,[6],3.12 µg/mL
same,MIC,[7],12.5 µg/mL
Cc1cc(O)n2nc(Nc3ccc(F)c(F)c3)c(C(=O)Nc3ccc(F)cc3)c2n1,MIC,[1],3.12 µg/mL
same,MIC,[2],25 µg/mL
CC(=O)N1/C(=C/c2ccc(Br)cc2)C(=O)c2ccccc21,MIC,[3],15.2 µM
same,MIC,[4],15.2 µM
same,MIC,[5],9.15 µM
CC(=O)N1/C(=C/c2ccc(-c3ccc(Cl)cc3)cc2)C(=O)c2ccccc21,MIC,[3],8.37 µM
same,MIC,[4],8.37 µM
same,MIC,[5],10.4 µM
NC(=O)N1N=C(c2ccc3oc(N)nc3c2)CC1c1cccs1 (stereo not given),MIC,[6],12.5 µg/mL
same,MIC,[7],50 µg/mL
CC(=O)N1N=C(c2ccc3oc(NC(=O)CCl)nc3c2)CC1c1cccs1 (stereo not given),MIC,[6],3.12 µg/mL
same,MIC,[7],12.5 µg/mL
CO[C@H]1/C=C/O[C@@]2(C)Oc3c(C)c(O)c4c(O)c(c(/C=N/N5CCN(C)CC5)c(O)c4c3C2=O)NC(=O)/C(C)=C\C=C\[C@H](C)[C@H](O)[C@@H](C)[C@@H](O)[C@@H](C)[C@H](OC(C)=O)[C@@H]1C [RIFAMPIN],MIC,[8],> 200 µg/mL
same,MIC,[9],3.13 µg/mL
same,MIC,[10],> 200 µg/mL
same,MIC,[11],> 200 µg/mL
same,MIC,[12],> 200 µg/mL
same,MIC,[13],> 200 µg/mL
same,MIC,[14],> 200 µg/mL
same,MIC,[3],0.377 µM
same,MIC,[15],> 200 µg/mL
same,MIC,[16],> 200 µg/mL
same,MIC,[17],100 µg/mL
same,MIC,[18],> 200 µg/mL
same,MIC,[19],6.25 µg/mL
same,MIC,[20],3.13 µg/mL
same,MIC,[4],> 12.2 µM
same,MIC,[21],> 200 µg/mL
same,MIC,[22],> 200 µg/mL
same,MIC,[23],> 200 µg/mL
same,MIC,[24],> 200 µg/mL
same,MIC,[25],6.25 µg/mL
same,MIC,[26],3.13 µg/mL
same,MIC,[5],> 12.2 µM
same,MIC,[27],> 200 µg/mL
same,MIC,[28],> 200 µg/mL
same,MIC,[29],100 µg/mL
same,MIC,[30],> 200 µg/mL
CCN(CC)CCOc1c(C(=O)OC)c2c3c(oc2c2ccccc12)C(=O)c1ccccc1C3=O,MIC,[8],0.19 µg/mL
same,MIC,[9],0.02 µg/mL
same,MIC,[10],0.19 µg/mL
same,MIC,[11],0.19 µg/mL
same,MIC,[12],0.02 µg/mL
same,MIC,[13],0.19 µg/mL
same,MIC,[14],0.02 µg/mL
same,MIC,[15],0.02 µg/mL
same,MIC,[16],0.02 µg/mL
same,MIC50,[17],0.19 µg/mL
same,MIC,[18],0.19 µg/mL
same,MIC,[19],0.19 µg/mL
same,MIC,[20],0.39 µg/mL
same,MIC,[21],0.02 µg/mL
same,MIC,[22],0.02 µg/mL
same,MIC,[23],0.39 µg/mL
same,MIC,[24],0.19 µg/mL
same,MIC,[25],0.02 µg/mL
same,MIC,[26],0.19 µg/mL
same,MIC,[27],0.19 µg/mL
same,MIC,[28],0.19 µg/mL
same,MIC,[29],0.19 µg/mL
same,MIC,[30],0.19 µg/mL
CC(=O)N1N=C(c2ccc3oc(S)nc3c2)CC1c1cccs1 (stereo not given),MIC,[6],25 µg/mL
same,MIC,[7],> 100 µg/mL
NC(=O)c1cnccn1 [PYRAZINAMIDE],MIC,[8],> 200 µg/mL
same,MIC,[9],> 200 µg/mL
same,MIC,[10],> 200 µg/mL
same,MIC,[11],> 200 µg/mL
same,MIC,[12],> 200 µg/mL
same,MIC,[13],> 200 µg/mL
same,MIC,[14],> 200 µg/mL
same,MIC,[15],> 200 µg/mL
same,MIC,[16],> 200 µg/mL
same,MIC,[17],> 200 µg/mL
same,MIC,[18],> 200 µg/mL
same,MIC,[19],> 200 µg/mL
same,MIC,[20],> 200 µg/mL
same,MIC,[21],> 200 µg/mL
same,MIC,[22],> 200 µg/mL
same,MIC,[23],> 200 µg/mL
same,MIC,[24],> 200 µg/mL
same,MIC,[25],> 200 µg/mL
same,MIC,[26],> 200 µg/mL
same,MIC,[27],> 200 µg/mL
same,MIC,[28],> 200 µg/mL
same,MIC,[29],> 200 µg/mL
same,MIC,[30],> 200 µg/mL
CC(=O)N1N=C(c2ccc3oc(N)nc3c2)CC1c1cccs1 (stereo not given),MIC,[6],6.25 µg/mL
same,MIC,[7],25 µg/mL
CCc1ccc(OCc2cn(C[C@@]3(C)Cn4cc([N+](=O)[O-])nc4O3)nn2)cc1,MIC,[31],4 µg/mL
same,MIC,[32],4 µg/mL
same,MIC,[33],2 µg/mL
Cc1ccc(NC(=O)c2c(Nc3ccc(Cl)cc3)nn3c(O)cc(C)nc23)cc1,MIC,[1],6.25 µg/mL
same,MIC,[2],> 100 µg/mL
C[C@]1(Cn2cc(COc3ccc(OC(F)(F)F)cc3)nn2)Cn2cc([N+](=O)[O-])nc2O1,MIC,[31],2 µg/mL
same,MIC,[32],2 µg/mL
same,MIC,[33],2 µg/mL
C[C@]1(Cn2cc(-c3ccc(C(F)(F)F)cc3)nn2)Cn2cc([N+](=O)[O-])nc2O1,MIC,[31],2 µg/mL
same,MIC,[32],4 µg/mL
same,MIC,[33],2 µg/mL
CCCCCc1cn(C[C@@]2(C)Cn3cc([N+](=O)[O-])nc3O2)nn1,MIC,[31],8 µg/mL
same,MIC,[32],8 µg/mL
same,MIC,[33],2 µg/mL
CC(=O)N1N=C(c2ccc3oc(NC(=O)c4ccccc4)nc3c2)CC1c1cccs1 (stereo not given),MIC,[6],12.5 µg/mL
same,MIC,[7],50 µg/mL
C[C@]1(Cn2cc(COc3ccc(C(F)(F)F)cc3)nn2)Cn2cc([N+](=O)[O-])nc2O1,MIC,[31],4 µg/mL
same,MIC,[32],4 µg/mL
same,MIC,[33],4 µg/mL
CC[C@@H](CO)NCCN[C@@H](CC)CO [ETHAMBUTOL],MIC,[8],6.25 µg/mL
same,MIC,[9],0.78 µg/mL
same,MIC,[10],6.25 µg/mL
same,MIC,[11],6.25 µg/mL
same,MIC,[12],6.25 µg/mL
same,MIC,[13],3.13 µg/mL
same,MIC,[14],3.13 µg/mL
same,MIC,[15],6.25 µg/mL
same,MIC,[16],6.25 µg/mL
same,MIC,[17],6.25 µg/mL
same,MIC,[18],6.25 µg/mL
same,MIC,[19],6.25 µg/mL
same,MIC,[20],6.25 µg/mL
same,MIC,[21],6.25 µg/mL
same,MIC,[22],6.25 µg/mL
same,MIC,[23],6.25 µg/mL
same,MIC,[24],6.25 µg/mL
same,MIC,[25],6.25 µg/mL
same,MIC,[26],6.25 µg/mL
same,MIC,[27],12.5 µg/mL
same,MIC,[28],6.25 µg/mL
same,MIC,[29],6.25 µg/mL
same,MIC,[30],6.25 µg/mL
C[C@]1(Cn2cc(COc3ccccc3F)nn2)Cn2cc([N+](=O)[O-])nc2O1,MIC,[31],1 µg/mL
same,MIC,[32],1 µg/mL
same,MIC,[33],0.5 µg/mL
CC(=O)N1N=C(c2ccc3oc(-c4ccc(O)cc4)nc3c2)CC1c1cccs1 (stereo not given),MIC,[6],3.12 µg/mL
same,MIC,[7],12.5 µg/mL
Cc1ccc(OCc2cn(C[C@@]3(C)Cn4cc([N+](=O)[O-])nc4O3)nn2)cc1,MIC,[31],8 µg/mL
same,MIC,[32],8 µg/mL
same,MIC,[33],2 µg/mL
